Measured values from patent US20130011493A1, “PLANT DISEASE CONTROLLING COMPOSITION AND METHOD FOR CONTROLLING PLANT DISEASE” (SUMITOMO CHEMICAL COMPANY, LIMITED, priority 2010, published 2013).

System: gray mold fungus (Botrytis cinerea)
Assay: cucumber leaf disk preventive test against gray mold fungus
Assay type: in vivo
Settings: 15° C., four days
Method: To a SUS beaker are added 30 parts of the present compound (racemate), 5 parts of Soprophor FLK (polyoxyethylene tristyrylphenyl ether phosphate, produced by Rhodia Nicca Ltd.), 65 parts of ion-exchange water and 150 parts of glass beads (1.0 mm diameter). The mixture is subjected to grinding at a velocity of 1000 rpm with cooling to 10° C., and thereafter the glass beads are separated, so as to obtain a flowable formulation comprising the present compound (racemate).
True leaf of cucumber is punched out with cork borer to 13 mm in diameter to prepare a leaf disk. In 24 well microwell plate that is dispensed with 1 ml 0.8% water agar, the leaf disk is placed such that the upper side of the leaf is in an upward direction. […]
After confirming that the testing medical solution is dried, conidium of gray mold fungus (Botrytis cinerea) is suspended into potato dextrose broth (DIFCO) in a density of about 10^5 conidium/mL and is then subjected to a spray inoculation. After leaving to stand the leaf disk in a growth chamber set up at 15° C. for four days, an onset area on the leaf is measured and then calculated an onset area rate (hereinafter, referred to as an onset area rate of treated group). […]
A preventive value is calculated from the above onset area rate of treated group and the onset area rate of non-treated group by the following equation: […]

Q: How did the “preventive value (%)” value (copper hydrochloride alone 0.5 ppm) turn out when copper hydrochloride was run?
A: 10%

Q: What about the “preventive value (%)” value (copper hydrochloride alone 5.0 ppm) of the same substance?
A: 15%
